# Results: paper PMC7759271 (Cannabis and Cannabinoid Research, 2020)
# Columns and labels:
# hTRPA1 = biological target: T1, hTRPA1 (Homo sapiens, UniProt O75762); assay: intracellular calcium fluorescence assay (Calcium […] dye, FlexStation […]); type: cell-based
# T1 construct: gene TRPA1
# hTRPV1 = biological target: T2, hTRPV1 (Homo sapiens, UniProt Q8NER1); assay: as above; type: cell-based
# T2 construct: gene TRPV1
# T2 sequence (Q8NER1 whole entry): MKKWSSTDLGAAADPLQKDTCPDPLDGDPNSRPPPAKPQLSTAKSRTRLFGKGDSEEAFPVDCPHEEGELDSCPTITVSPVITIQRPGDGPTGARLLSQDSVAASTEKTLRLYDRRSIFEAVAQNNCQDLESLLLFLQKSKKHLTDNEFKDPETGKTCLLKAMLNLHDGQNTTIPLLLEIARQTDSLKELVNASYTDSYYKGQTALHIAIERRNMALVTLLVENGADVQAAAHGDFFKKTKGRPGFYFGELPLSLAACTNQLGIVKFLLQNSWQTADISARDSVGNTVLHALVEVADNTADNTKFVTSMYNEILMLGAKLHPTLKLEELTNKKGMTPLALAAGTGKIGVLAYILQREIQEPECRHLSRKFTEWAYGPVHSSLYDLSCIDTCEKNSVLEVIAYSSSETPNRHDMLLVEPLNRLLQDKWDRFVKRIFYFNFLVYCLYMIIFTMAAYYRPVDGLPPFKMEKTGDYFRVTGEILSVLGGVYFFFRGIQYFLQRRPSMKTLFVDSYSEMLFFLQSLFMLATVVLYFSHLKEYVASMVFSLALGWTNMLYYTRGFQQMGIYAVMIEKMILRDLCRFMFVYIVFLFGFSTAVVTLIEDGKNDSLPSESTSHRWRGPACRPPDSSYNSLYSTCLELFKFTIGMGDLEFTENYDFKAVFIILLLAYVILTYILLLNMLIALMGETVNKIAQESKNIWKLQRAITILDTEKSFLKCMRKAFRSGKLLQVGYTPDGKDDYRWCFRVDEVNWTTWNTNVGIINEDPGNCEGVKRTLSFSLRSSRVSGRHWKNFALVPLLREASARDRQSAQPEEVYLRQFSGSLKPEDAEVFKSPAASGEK
# T1 sequence (O75762 whole entry): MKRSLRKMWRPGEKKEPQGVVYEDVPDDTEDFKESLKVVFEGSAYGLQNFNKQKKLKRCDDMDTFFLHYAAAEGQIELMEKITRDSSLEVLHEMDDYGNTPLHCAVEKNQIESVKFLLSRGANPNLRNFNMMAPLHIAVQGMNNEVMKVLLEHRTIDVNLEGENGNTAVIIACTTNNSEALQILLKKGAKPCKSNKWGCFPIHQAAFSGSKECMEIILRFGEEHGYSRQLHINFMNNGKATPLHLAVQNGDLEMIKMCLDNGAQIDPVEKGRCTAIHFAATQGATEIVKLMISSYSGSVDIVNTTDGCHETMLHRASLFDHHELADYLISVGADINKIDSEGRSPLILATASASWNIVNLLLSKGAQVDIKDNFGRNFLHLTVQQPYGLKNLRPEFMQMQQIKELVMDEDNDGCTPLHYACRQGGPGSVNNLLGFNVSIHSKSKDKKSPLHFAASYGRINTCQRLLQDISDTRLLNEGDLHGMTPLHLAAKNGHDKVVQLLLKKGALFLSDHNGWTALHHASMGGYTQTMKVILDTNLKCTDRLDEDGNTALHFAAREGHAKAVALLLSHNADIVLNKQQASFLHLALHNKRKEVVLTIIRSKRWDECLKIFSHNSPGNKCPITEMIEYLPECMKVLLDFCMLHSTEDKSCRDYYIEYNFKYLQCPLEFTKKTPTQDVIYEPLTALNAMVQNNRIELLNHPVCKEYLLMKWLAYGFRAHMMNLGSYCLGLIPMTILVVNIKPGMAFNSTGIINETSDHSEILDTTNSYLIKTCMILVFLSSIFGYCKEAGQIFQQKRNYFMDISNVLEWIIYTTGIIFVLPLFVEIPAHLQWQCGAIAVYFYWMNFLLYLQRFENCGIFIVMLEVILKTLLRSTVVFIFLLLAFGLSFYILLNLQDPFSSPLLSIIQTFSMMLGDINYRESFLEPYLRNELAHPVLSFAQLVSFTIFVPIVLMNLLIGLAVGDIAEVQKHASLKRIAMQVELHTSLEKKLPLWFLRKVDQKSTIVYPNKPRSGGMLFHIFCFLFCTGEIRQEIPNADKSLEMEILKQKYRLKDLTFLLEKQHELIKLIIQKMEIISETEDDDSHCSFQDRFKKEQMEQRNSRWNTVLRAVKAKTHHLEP
SMILES,EC50 (hTRPA1),EC50 (hTRPV1)
CCCCC/C=C\C/C=C\C/C=C\C/C=C\CCCC(=O)OC(CO)CO [2-arachidonoylglycerol],10 µM,
CCCCC/C=C\C/C=C\C/C=C\C/C=C\CCCC(=O)NCCO [anandamide],,4.3 µM
O=CC=Cc1ccccc1 [cinnamaldehyde],12 µM,
CCCCCc1cc(O)c2c(c1)OC(C)(C)[C@@H]1CCC(C)=C[C@@H]21 [Δ9-tetrahydrocannabinol],9 µM,
